pEC50: −log10 of the molar value. Active and inactive are the calls of the source. No cut-off for these calls is given here.
How the values were obtained:
[1] = Induction of singlet oxygen generation in MeOH assessed as singlet oxygen quantum yield; type: functional
[2] = Fluorescence property of compound in MeOH assessed as quantum yield; type: physicochemical
[3] = Emission maximum of the compound in THF; type: physicochemical
[4] = Fluorescence property of compound in MeOH assessed as life time; type: physicochemical
[5] = Absorption maximum of the compound in MeOH; type: physicochemical
[6] = Absorption property of the compound in THF assessed as extinction coefficient; type: physicochemical
[7] = Fluorescence property of compound in THF assessed as quantum yield; type: physicochemical
HeLa [8] = experiment: Potency index, ratio of S3AlOHPc EC50 to test compound EC50 for phototoxicity against human HeLa cells; type: functional
[9] = Phototoxicity against human SK-MEL-28 cells assessed as reduction in cell viability preincubated for 12 hrs followed by 15 mins of light irradiation and measured after 24 hrs by neutral red uptake assay; type: functional, cell-based; conditions: SK-MEL-28, light or radiation study
[10] = Phototoxicity against human HeLa cells assessed as reduction in cell viability preincubated for 12 hrs followed by 15 mins of light irradiation and measured after 24 hrs by neutral red uptake assay; type: functional, cell-based; conditions: light or radiation study
[11] = n-Octanol/PBS partition coefficient, logP of the compound at pH 7.4 at 100 uM after 5 mins; type: physicochemical
HeLa [12] = experiment: Potency index, ratio of PpXI EC50 to test compound EC50 for phototoxicity against human HeLa cells; type: functional
[13] = Absorption maximum of the compound in EtOH; type: physicochemical
[14] = Dark toxicity against human SK-MEL-28 cells assessed as reduction in cell viability incubated for 24 hrs by neutral red uptake assay; type: cell-based; conditions: read-out: TC50
[15] = Absorption maximum of the compound in THF; type: physicochemical
[16] = Induction of singlet oxygen generation in THF assessed as singlet oxygen quantum yield; type: functional
[17] = Drug localization in endo-lysosome of human SK-MEL-28 cells at 1 uM after 12 hrs by confocal microscopy analysis; type: ADME, subcellular; conditions: sk-mel-28, 12 h
[18] = Dark toxicity against human HeLa cells assessed as reduction in cell viability incubated for 24 hrs by neutral red uptake assay; type: cell-based; conditions: read-out: TC50
[19] = Drug localization in endo-lysosome of human HeLa cells at 1 uM after 12 hrs by confocal microscopy analysis; type: ADME, subcellular
[20] = Selectivity index, ratio of TC50 for human SK-MEL-28 cells to EC50 for human SK-MEL-28 cells
[21] = Drug uptake in human HeLa cells assessed per mg protein measured upto 12 hrs by spectrofluorometric method; type: ADME, cell-based
[22] = Selectivity index, ratio of TC50 for human HeLa cells to EC50 for human HeLa cells
[23] = Fluorescence property of compound in EtOH assessed as quantum yield; type: physicochemical
[24] = Drug uptake in human SK-MEL-28 cells assessed per mg protein measured upto 12 hrs by spectrofluorometric method; type: ADME, cell-based; conditions: sk-mel-28, 12 h
HeLa [25] = experiment: Potency index, ratio of temo-porfin EC50 to test compound EC50 for phototoxicity against human HeLa cells; type: functional
[26] = Fluorescence property of compound in THF assessed as life time; type: physicochemical
SK-MEL-28 = experiment: Induction of apoptosis in human SK-MEL-28 cells at EC50 concentration preincubated for 12 hrs followed by 15 mins light irradiation and measured every 15 mins for 48 hrs by real time-glo Annexin V assay; type: functional, cell-based; conditions: time 3615.0 min
[27] = Induction of singlet oxygen generation in EtOH assessed as singlet oxygen quantum yield; type: functional
[28] = Fluorescence property of compound in acetone assessed as quantum yield; type: physicochemical
[29] = Drug localization in adiposome of human HeLa cells at 1 uM after 12 hrs by confocal microscopy analysis; type: ADME, subcellular
[30] = Drug localization in adiposome of human SK-MEL-28 cells at 1 uM after 12 hrs by confocal microscopy analysis; type: ADME, subcellular; conditions: sk-mel-28, 12 h

Row | SMILES | Activity [3] [nm] | Activity [6] [M⁻¹ cm⁻¹] | Activity [7] | logD at 5 min, 100 µM [11] | Activity [13] [nm] | Activity [15] [nm] | Drug uptake [21] [nmol/mg] | Activity [23] | Drug uptake [24] [nmol/mg] | Activity [26] [nanoseconds] | Drug uptake [29] | pEC50 [9] | pEC50 [10] | CC50 at 24 h [14] [µM] | Activity [16] | CC50 at 24 h [18] [µM] | Selectivity Index [20] | Selectivity Index [22] | Activity (SK-MEL-28) | Activity [27] | further results
1 | CC1(C)CCC(C)(C)c2cc3c(cc21)C1=Nc2c4cc5c(cc4c4n2[B-]2(Cl)n6c(c7cc8c(cc7c6=N4)C(C)(C)CCC8(C)C)=NC3=[N+]12)C(C)(C)CCC5(C)C (configuration not stated) | 587 | – | – | – | – | – | – | – | – | – | – | – | – | – | – | – | – | – | – | – | Activity [1]: 0.65; Activity [2]: 0.18; Activity [4]: 2.04 nanoseconds; Activity [5]: 575 nm
2 | CCSc1ccc2c(c1)C1=Nc3c4ccc(SCC)cc4c4n3[B-]3(OCc5ccc6c(c5)OCCOCCOCCOCCOCCO6)n5c(c6cc(SCC)ccc6c5=N4)=NC2=[N+]13 (configuration not stated) | 594 | 92080 | 0.21 | 1.92 | 583 | 578 | 9.69 | 0.2 | 2.66 | 1.77 | – | 8.64 | 8.36 | 14.5 | 0.57 | 5.25 | 6300 | 1193 | Active | 0.72 | Ratio EC50 (HeLa [8]): 470; Ratio EC50 (HeLa [12]): 182; Drug uptake [17]: Active; Drug uptake [19]: Active; Ratio EC50 (HeLa [25]): 10
3 | Fc1c(F)c(F)c2c(c1F)C1=Nc3c4c(F)c(F)c(F)c(F)c4c4n3[B-]3(OCc5ccc6c(c5)OCCOCCOCCOCCOCCO6)n5c(c6c(F)c(F)c(F)c(F)c6c5=N4)=NC2=[N+]13 (configuration not stated) | 579 | 81000 | 0.014 | – | 567 | 568 | – | 0.014 | – | – | – | 4.79 | 5.19 | 18.9 | 0.086 | 6.78 | 1.16 | 1.06 | – | 0.056 | –
4 | c1ccc(O[B-]23n4c5c6ccccc6c4N=c4c6ccccc6c(n42)=NC2=[N+]3C(=N5)c3ccccc32)cc1 (configuration not stated) | – | – | – | – | – | 563 | – | – | – | – | – | – | – | – | – | – | – | – | – | – | Activity [28]: 0.18
5 | CCSc1ccc2c(c1)C1=Nc3c4ccc(SCC)cc4c4n3[B@-]3(Oc5ccc(C[C@H](N)C(=O)OC)cc5)n5c(c6cc(SCC)ccc6c5=N4)=NC2=[N+]13 | 594 | 66510 | 0.17 | 1.93 | 583 | 579 | 0.622 | 0.16 | 0.367 | 1.71 | Active | 6.66 | 6.92 | > 100 | 0.49 | 68.8 | >455 | 573 | Active | 0.5 | Drug uptake [30]: Active
6 | COC(=O)[C@H](Cc1ccc(O[B-]23n4c5c6c(F)c(F)c(F)c(F)c6c4N=c4c6c(F)c(F)c(F)c(F)c6c(n42)=NC2=[N+]3C(=N5)c3c(F)c(F)c(F)c(F)c32)cc1)NC(=O)OC(C)(C)C (some centres not stated) | 578 | 27790 | 0.09 | – | 567 | 568 | – | 0.09 | – | – | – | 4.18 | 4.19 | > 100 | 0.19 | 65.7 | >1.51 | 1.03 | – | 0.19 | –
7 | Cl[B-]12n3c4c5ccc(I)cc5c3N=c3c5ccc(I)cc5c(n31)=NC1=[N+]2C(=N4)c2ccc(I)cc21 (configuration not stated) | 581 | 65160 | 0.03 | – | 569 | 572 | – | 0.03 | – | 0.3 | – | – | – | – | 0.7 | – | – | – | – | 0.77 | –

Now from value to molecule, other results behind:

Row | Activity [3] [nm] | Activity [6] [M⁻¹ cm⁻¹] | Activity [7] | logD at 5 min, 100 µM [11] | Activity [13] [nm] | Activity [15] [nm] | Drug uptake [21] [nmol/mg] | Activity [23] | Drug uptake [24] [nmol/mg] | Activity [26] [nanoseconds] | Drug uptake [29] | SMILES | pEC50 [9] | pEC50 [10] | CC50 at 24 h [14] [µM] | Activity [16] | CC50 at 24 h [18] [µM] | Selectivity Index [20] | Selectivity Index [22] | Activity (SK-MEL-28) | Activity [27] | further results
8 | 578 | 80750 | 0.022 | – | 569 | 568 | 0.33 | 0.022 | 0.005 | 0.35 | Active | Ic1ccc2c(c1)C1=[N+]3C2=Nc2c4ccc(I)cc4c4n2[B@-]3(OCc2ccc3c(c2)OCCOCCOCCOCCOCCO3)n2c(c3cc(I)ccc3c2=N4)=N1 | 7.42 | 7.18 | 71.8 | 0.57 | 23.5 | 1891 | 356 | Active | 0.59 | Drug uptake [30]: Active
9 | 596 | 97450 | 0.19 | 2.63 | 582 | 581 | 0.121 | 0.2 | 0.033 | 1.69 | Active | CCSc1ccc2c(c1)C1=Nc3c4ccc(SCC)cc4c4n3[B-]3(Oc5ccc(C[C@H](NC(=O)OC(C)(C)C)C(=O)OC)cc5)n5c(c6cc(SCC)ccc6c5=N4)=NC2=[N+]13 (some centres not stated) | 5.32 | 5.35 | > 100 | 0.64 | > 100 | >21 | >22 | Active | 0.7 | Drug uptake [30]: Active
10 | 578 | 37460 | 0.01 | 1.79 | 569 | 568 | – | 0.01 | – | 0.34 | – | COC(=O)[C@@H](N)Cc1ccc(O[B-]23n4c5c6ccc(I)cc6c4N=c4c6ccc(I)cc6c(n42)=NC2=[N+]3C(=N5)c3ccc(I)cc32)cc1 (some centres not stated) | < 4.00 | < 4.00 | > 100 | 0.49 | > 100 | – | – | – | 0.29 | –
11 | 577 | 106120 | 0.03 | 2.22 | 568 | 569 | – | 0.03 | – | 0.3 | Active | COC(=O)[C@H](Cc1ccc(O[B@@-]23n4c5c6ccc(I)cc6c4N=c4c6ccc(I)cc6c(n42)=NC2=[N+]3C(=N5)c3ccc(I)cc32)cc1)NC(=O)OC(C)(C)C | 4.93 | 4.92 | > 50 | 0.64 | > 50 | >4 | >4 | – | 0.86 | Drug uptake [30]: Active

— ChEMBL document CHEMBL5053548, “Subphthalocyanines as Efficient Photosensitizers with Nanomolar Photodynamic Activity against Cancer Cells” (J Med Chem, 2021)
